Test results as given in ChEMBL document CHEMBL5034010, “Novel Cephalosporin Conjugates Display Potent and Selective Inhibition of Imipenemase-Type Metallo-β-Lactamases” (J Med Chem, 2021).
Converted amounts (≈) assume the structure as drawn. The source made the active and inactive calls. The rule behind the calls is not given here.

How the values were obtained:
Escherichia coli [1] = test: Inhibition of Metallo-beta-lactamase VIM-2 in Escherichia coli clinical isolate assessed as MIC for meropenem antibacterial activity at 32 ug/ml (reference value: 8 ug/ml); conditions: dose 32.0 µg/ml
[2] = Inhibition of Enterobacter cloacae IMP-1 using nitrocefin chromogenic substrate measured after 15 to 60 min at 25 degC by microplate reader
Enterobacter cloacae [3] = test: Inhibition of Metallo-beta-lactamase IMP-1 in Enterobacter cloacae clinical isolate assessed as fold reduction in meropenem MIC at 128 ug/ml; conditions: dose 128.0 µg/ml
Escherichia coli [4] = test: Inhibition of Metallo-beta-lactamase NDM-1 in Escherichia coli clinical isolate assessed as MIC for meropenem antibacterial activity at 128 ug/ml (reference value: 32 ug/ml); conditions: dose 128.0 µg/ml
[5] = Stability of the compound in Muller hinton broth assessed compound remaining measured after 15 hrs by HPLC analysis; type: physicochemical; conditions: Mueller Hinton broth, read-out: Stability
[6] = Inhibition of Escherichia coli beta-lactamase NDM-1 using nitrocefin chromogenic substrate measured after 15 to 60 min at 25 degC by microplate reader
Enterobacter cloacae [7] = test: Inhibition of Enterobacter cloacae Metallo-beta-lactamase IMP-1
Escherichia coli [8] = test: Inhibition of Metallo-beta-lactamase VIM-2 in Escherichia coli clinical isolate assessed as MIC for meropenem antibacterial activity at 128 ug/ml (reference value: 8 ug/ml); conditions: dose 128.0 µg/ml
Escherichia coli [9] = test: Substrate activity at Escherichia coli beta-lactamase NDM-1 assessed as compound hydrolysis by measuring Km by Michaelis-Menten analysis
Enterobacter cloacae [10] = test: Inhibition of Metallo-beta-lactamase IMP-1 in Enterobacter cloacae clinical isolate assessed as MIC for meropenem antibacterial activity at 64 ug/ml (reference value: 32 ug/ml); conditions: dose 64.0 µg/ml
Klebsiella pneumoniae [11] = test: Inhibition of Klebsiella pneumoniae beta Metallo-beta-lactamase IMP-28
[12] = Inhibition of Escherichia coli beta-lactamase VIM-2 using nitrocefin chromogenic substrate measured after 15 to 60 min at 25 degC by microplate reader
Enterobacter cloacae [13] = test: Antibacterial activity against beta-lactamase IMP1 producing Enterobacter cloacae clinical isolate measured upto 128 ug/ml; type: functional, organism-based
Klebsiella pneumoniae [14] = test: Inhibition of Metallo-beta-lactamase IMP-28 in Klebsiella pneumoniae clinical isolate assessed as fold reduction in meropenem MIC at 32 ug/ml; conditions: dose 32.0 µg/ml
Enterobacter cloacae [15] = test: Inhibition of Metallo-beta-lactamase IMP-1 in Enterobacter cloacae clinical isolate assessed as fold reduction in meropenem MIC at 64 ug/ml; conditions: dose 64.0 µg/ml
Escherichia coli [16] = test: Substrate activity at Escherichia coli beta-lactamase VIM-2 assessed as compound hydrolysis by measuring Km by Michaelis-Menten analysis
Klebsiella pneumoniae [17] = test: Inhibition of Metallo-beta-lactamase IMP-28 in Klebsiella pneumoniae clinical isolate assessed as MIC for meropenem antibacterial activity at 128 ug/ml (reference value: 4 ug/ml); conditions: dose 128.0 µg/ml
Escherichia coli [18] = test: Inhibition of Metallo-beta-lactamase VIM-2 in Escherichia coli clinical isolate assessed as MIC for meropenem antibacterial activity at 64 ug/ml (reference value: 8 ug/ml); conditions: dose 64.0 µg/ml
Klebsiella pneumoniae [19] = test: Inhibition of Metallo-beta-lactamase IMP-28 in Klebsiella pneumoniae clinical isolate assessed as fold reduction in meropenem MIC at 128 ug/ml; conditions: dose 128.0 µg/ml
Escherichia coli [20] = test: Inhibition of Metallo-beta-lactamase VIM-2 in Escherichia coli clinical isolate assessed as fold reduction in meropenem MIC at 128 ug/ml; conditions: dose 128.0 µg/ml
Escherichia coli [21] = test: Inhibition of Metallo-beta-lactamase VIM-2 in Escherichia coli clinical isolate assessed as fold reduction in meropenem MIC at 64 ug/ml; conditions: dose 64.0 µg/ml
Enterobacter cloacae [22] = test: Inhibition of Metallo-beta-lactamase IMP-1 in Enterobacter cloacae clinical isolate assessed as MIC for meropenem antibacterial activity at 128 ug/ml (reference value: 32 ug/ml); conditions: dose 128.0 µg/ml
Escherichia coli [23] = test: Inhibition of Metallo-beta-lactamase NDM-1 in Escherichia coli clinical isolate assessed as MIC for meropenem antibacterial activity at 64 ug/ml (reference value: 32 ug/ml); conditions: dose 64.0 µg/ml
[24] = Metabolic stability of the compound assessed as Klebsiella pneumoniae beta-lactamase IMP-28-mediated metabolism by (2R)-2-((R)-carboxy(2-phenylacetamido)methyl)-5-(((R)-carboxy(phenyl)methylthio)methyl)-5,6-dihydro-2H-1,3-thiazine-4-carboxylic acid by LC-MS analysis; type: ADME
Escherichia coli [25] = test: Inhibition of Metallo-beta-lactamase VIM-2 in Escherichia coli clinical isolate assessed as fold reduction in meropenem MIC at 32 ug/ml; conditions: dose 32.0 µg/ml
Escherichia coli [26] = test: Antibacterial activity against beta-lactamase NDM1 producing Escherichia coli clinical isolate measured upto 128 ug/ml; type: functional, organism-based
[27] = Stability of the compound assessed as Klebsiella pneumoniae beta-lactamase IMP-28-mediated degradation by measuring appearance of vinyl protons release measured after 120 mins by NMR spectra; type: ADME; conditions: 2 h
Escherichia coli [28] = test: Substrate activity at Escherichia coli beta-lactamase NDM-1 assessed as compound hydrolysis by measuring kcat/km by Michaelis-Menten analysis
Klebsiella pneumoniae [29] = test: Antibacterial activity against beta-lactamase IMP-28 producing Klebsiella pneumoniae clinical isolate measured upto 128 ug/ml; type: functional, organism-based
[30] = Inhibition of Klebsiella pneumoniae beta-lactamase IMP-28 using nitrocefin chromogenic substrate measured after 15 to 60 min at 25 degC by microplate reader
Klebsiella pneumoniae [31] = test: Inhibition of Metallo-beta-lactamase IMP-28 in Klebsiella pneumoniae clinical isolate assessed as MIC for meropenem antibacterial activity at 32 ug/ml (reference value: 4 ug/ml); conditions: dose 32.0 µg/ml
Escherichia coli [32] = test: Substrate activity at Escherichia coli beta-lactamase VIM-2 assessed as compound hydrolysis by measuring Kcat by Michaelis-Menten analysis
Escherichia coli [33] = test: Inhibition of Metallo-beta-lactamase NDM-1 in Escherichia coli clinical isolate assessed as fold reduction in meropenem MIC at 64 ug/ml; conditions: dose 64.0 µg/ml
Klebsiella pneumoniae [34] = test: Substrate activity at Klebsiella pneumoniae beta-lactamase IMP-28 assessed as compound hydrolysis by measuring Kcat by Michaelis-Menten analysis
Klebsiella pneumoniae [35] = test: Substrate activity at Klebsiella pneumoniae beta-lactamase IMP-28 assessed as compound hydrolysis by measuring Km by Michaelis-Menten analysis
Escherichia coli [36] = test: Substrate activity at Escherichia coli beta-lactamase NDM-1 assessed as compound hydrolysis by measuring Kcat by Michaelis-Menten analysis
Escherichia coli [37] = test: Inhibition of Metallo-beta-lactamase NDM-1 in Escherichia coli clinical isolate assessed as fold reduction in meropenem MIC at 128 ug/ml; conditions: dose 128.0 µg/ml
Escherichia coli [38] = test: Antibacterial activity against beta-lactamase VIM2 producing Escherichia coli clinical isolate measured upto 128 ug/ml; type: functional, organism-based
Enterobacter cloacae [39] = test: Inhibition of Metallo-beta-lactamase IMP-1 in Enterobacter cloacae clinical isolate assessed as MIC for meropenem antibacterial activity at 32 ug/ml (reference value: 32 ug/ml); conditions: dose 32.0 µg/ml
Enterobacter cloacae [40] = test: Inhibition of Metallo-beta-lactamase IMP-1 in Enterobacter cloacae clinical isolate assessed as fold reduction in meropenem MIC at 32 ug/ml; conditions: dose 32.0 µg/ml
Escherichia coli [41] = test: Inhibition of Metallo-beta-lactamase NDM-1 in Escherichia coli clinical isolate assessed as fold reduction in meropenem MIC at 32 ug/ml; conditions: dose 32.0 µg/ml
Klebsiella pneumoniae [42] = test: Inhibition of Metallo-beta-lactamase IMP-28 in Klebsiella pneumoniae clinical isolate assessed as MIC for meropenem antibacterial activity at 64 ug/ml (reference value: 4 ug/ml); conditions: dose 64.0 µg/ml
Klebsiella pneumoniae [43] = test: Substrate activity at Klebsiella pneumoniae beta-lactamase IMP-28 assessed as compound hydrolysis by measuring Kcat/Km by Michaelis-Menten analysis
Klebsiella pneumoniae [44] = test: Inhibition of Metallo-beta-lactamase IMP-28 in Klebsiella pneumoniae clinical isolate assessed as fold reduction in meropenem MIC at 64 ug/ml; conditions: dose 64.0 µg/ml
Escherichia coli [45] = test: Substrate activity at Escherichia coli beta-lactamase VIM-2 assessed as compound hydrolysis by measuring Kcat/Km by Michaelis-Menten analysis
Escherichia coli [46] = test: Inhibition of Metallo-beta-lactamase NDM-1 in Escherichia coli clinical isolate assessed as MIC for meropenem antibacterial activity at 32 ug/ml (reference value: 32 ug/ml); conditions: dose 32.0 µg/ml

## O=C(Cc1ccccc1)N[C@@H]1C(=O)N2C(C(=O)O)=C(CS[C@H](Cc3ccccc3)C(=O)O)CS[C@H]12
Escherichia coli [1]
  MIC: 4 µg/mL (≈ 7.8 µM)
[2]
  IC50: 4.7 µM
Enterobacter cloacae [3]
  fold change (FC): 64
Escherichia coli [4]
  MIC: 8 µg/mL (≈ 15.6 µM)
[5]
  remaining at 15 h: > 95%
[6]
  IC50: 94 µM
Enterobacter cloacae [7]
  inhibition: Active
Escherichia coli [8]
  MIC: 2 µg/mL (≈ 3.9 µM)
Escherichia coli [9]
  Km: 21.2 µM
Enterobacter cloacae [10]
  MIC: 1 µg/mL (≈ 1.95 µM)
Klebsiella pneumoniae [11]
  inhibition: Active
[12]
  IC50: 16 µM
Enterobacter cloacae [13]
  Activity: inactive
Klebsiella pneumoniae [14]
  fold change (FC): > 64
Enterobacter cloacae [15]
  fold change (FC): 32
Escherichia coli [16]
  Km: 4.3 µM
Klebsiella pneumoniae [17]
  MIC: < 0.063 µg/mL
Escherichia coli [18]
  MIC: 4 µg/mL (≈ 7.8 µM)
Klebsiella pneumoniae [19]
  fold change (FC): > 64
Escherichia coli [20]
  fold change (FC): 4
Escherichia coli [21]
  fold change (FC): 2
Enterobacter cloacae [22]
  MIC: 0.5 µg/mL (≈ 0.975 µM)
Escherichia coli [23]
  MIC: 8 µg/mL (≈ 15.6 µM)
[24]
  Drug metabolism: Metabolite_Detected
Escherichia coli [25]
  fold change (FC): 2
Escherichia coli [26]
  Activity: inactive
[27]
  Stability: Stable
Escherichia coli [28]
  kcat/Km: 821000 M⁻¹ s⁻¹
Klebsiella pneumoniae [29]
  Activity: inactive
[30]
  IC50: 1.1 µM
Klebsiella pneumoniae [31]
  MIC: < 0.063 µg/mL
Escherichia coli [32]
  kcat: 2.35 s⁻¹
Escherichia coli [33]
  fold change (FC): 4
Klebsiella pneumoniae [34]
  kcat: 2.83 s⁻¹
Klebsiella pneumoniae [35]
  Km: 249 µM
Escherichia coli [36]
  kcat: 17.4 s⁻¹
Escherichia coli [37]
  fold change (FC): 4
Escherichia coli [38]
  Activity: inactive
Enterobacter cloacae [39]
  MIC: 1 µg/mL (≈ 1.95 µM)
Enterobacter cloacae [40]
  fold change (FC): 32
Escherichia coli [41]
  fold change (FC): 2
Klebsiella pneumoniae [42]
  MIC: < 0.063 µg/mL
Klebsiella pneumoniae [43]
  kcat/Km: 11000 M⁻¹ s⁻¹
Klebsiella pneumoniae [44]
  fold change (FC): > 64
Escherichia coli [45]
  kcat/Km: 546000 M⁻¹ s⁻¹
Escherichia coli [46]
  MIC: 16 µg/mL (≈ 31.2 µM)
